Laboratory results: the CheMixHub ionic liquid set
± gives the uncertainty stated by the source.

Experiment: xn = mol fraction of the nth substance listed

O=C1CCCCCN1 + CCO + CCCC[N+](CCCC)(CCCC)CCCC.[Cl-]
electrical conductivity [S/m], 101 kPa
Conditions | x1 = 0.0058, x3 = 0.0058 | x1 = 0.00584, x3 = 0.0058 | x1 = 0.00587, x3 = 0.00587 | x1 = 0.0059, x3 = 0.0059 | x2 = 0.555, x1 = 0.2225 | x2 = 0.6648, x1 = 0.1676 | x2 = 0.7728, x1 = 0.1136 | x2 = 0.8892, x1 = 0.0554
295.65 K | – | – | – | – | 0.218 ± 0.0022 | 0.2632 ± 0.0026 | 0.3032 ± 0.003 | –
298.15 K | – | – | – | – | 0.232 ± 0.0023 | 0.268 ± 0.0027 | 0.31 ± 0.0031 | –
300.65 K | – | 0.0588 ± 0.001 | – | – | 0.241 ± 0.0024 | 0.269 ± 0.0027 | 0.3143 ± 0.0031 | –
303.15 K | – | – | – | 0.0587 ± 0.001 | 0.256 ± 0.0026 | 0.27 ± 0.0027 | 0.317 ± 0.0032 | 0.25 ± 0.0026
305.65 K | – | 0.0586 ± 0.001 | – | – | 0.2704 ± 0.0027 | 0.2713 ± 0.0027 | 0.317 ± 0.0032 | 0.25 ± 0.0026
308.15 K | – | 0.0585 ± 0.001 | – | – | 0.2842 ± 0.0028 | 0.2737 ± 0.0027 | 0.319 ± 0.0032 | 0.249 ± 0.0026
310.65 K | – | – | – | 0.0585 ± 0.001 | 0.2936 ± 0.0029 | 0.276 ± 0.0028 | 0.3224 ± 0.0032 | 0.248 ± 0.0026
313.15 K | – | 0.0585 ± 0.001 | – | – | 0.3023 ± 0.003 | 0.278 ± 0.0028 | 0.325 ± 0.0033 | 0.248 ± 0.0026
315.65 K | – | – | – | 0.0587 ± 0.001 | 0.308 ± 0.0031 | 0.28 ± 0.0028 | 0.328 ± 0.0033 | 0.248 ± 0.0026
318.15 K | – | – | – | 0.0587 ± 0.001 | 0.3136 ± 0.0031 | 0.2821 ± 0.0028 | 0.329 ± 0.0033 | 0.248 ± 0.0026
320.65 K | – | 0.0587 ± 0.001 | – | – | 0.3131 ± 0.0031 | 0.2841 ± 0.0028 | 0.3303 ± 0.0033 | 0.246 ± 0.0026
323.15 K | – | 0.0586 ± 0.001 | – | – | 0.315 ± 0.0032 | 0.287 ± 0.0029 | 0.329 ± 0.0033 | 0.245 ± 0.0026
325.65 K | 0.0584 ± 0.001 | – | – | – | 0.3129 ± 0.0031 | 0.288 ± 0.0029 | 0.327 ± 0.0033 | 0.246 ± 0.0026
328.15 K | 0.0576 ± 0.001 | – | – | – | – | 0.289 ± 0.0029 | – | 0.246 ± 0.0026
330.65 K | – | 0.0569 ± 0.0009 | – | – | – | 0.288 ± 0.0029 | – | 0.245 ± 0.0026
333.15 K | – | – | 0.0562 ± 0.0009 | – | – | 0.288 ± 0.0029 | – | 0.245 ± 0.0026

C[C@H](N)C(=O)O + CCCCCCCCCCCC[N+](C)(C)Cc1ccccc1.[Cl-] + O
electrical conductivity [S/m], 101 kPa
Conditions | 293.15 K | 298.15 K | 303.15 K | 308.15 K | 313.15 K
x1 = 0.000902, x2 = 0 | 0.0002 ± 1.2e-05 | 0.000236 ± 1.4e-05 | 0.000271 ± 1.6e-05 | 0.00031 ± 1.9e-05 | 0.000356 ± 2.2e-05
x1 = 0.001774, x2 = 0 | 0.000272 ± 1.7e-05 | 0.000323 ± 2e-05 | 0.000378 ± 2.3e-05 | 0.000442 ± 2.7e-05 | 0.000511 ± 3.1e-05

CCCC[n+]1ccn(C)c1.F[B-](F)(F)F + CCC(C)=O
100 kPa, x1 = 1
Conditions | viscosity [mPa·s]
303.15 K | 85.4 ± 1.1
313.15 K | 53.84 ± 0.55
323.15 K | 36.27 ± 0.39
333.15 K | 25.46 ± 0.27

O + CCCO + CCCCCCCCCCCCOS(=O)(=O)[O-].[Na+]
Conditions | electrical conductivity [S/m]
298 K, 100 kPa, frequency 0.001 MHz, x2 = 0, x1 = 1 | 0.0005 ± 0.00062
